Experiments:
Experiment in all cases: Finger 2 variant affinity (Table 5)
Format in all cases: binding
Finger-2 Subsite GAG = biological target: Finger-2 Subsite GAG
From the text: (§1) Finger 2 variants recognizing each of the 16 triplets of the GXX set (Segal et al. (1999) Proc. Natl. Acad. Sci. U.S.A. 96:2758-2763; and Table 1), as well as one variant recognizing TGA, have been successfully selected. […] Thus, a 5′- and 3′-G selected an arginine at helix positions 6 and −1, respectively, while a central G selected an a histidine or lysine at position 3 of the recognition helix. In contrast, a central A selected an asparagine, a 3′-A a glutamine, a central T a serine or alanine, a 3′-T a threonine or serine, a central C an aspartate or threonine, and a 3′-C an aspartate or glutamate at the corresponding helix positions.
(§2) In Table 5, below, the finger 2 variants generated by phage display selection and refined by site-directed mutagenesis are summarized. Protein designations are in the form pXXX, for clones derived from panning; pmXXX refers to clones refined by mutagenesis. Helix positions −1, 3, and 6 are shown in bold, altered nucleotides are underlined. The values represent the results of at least two independent experiments. The standard error was ±50% or less.

Finger-2 Subsite GTG = biological target: Finger-2 Subsite GTG
From the text: as §1, §2

Finger-2 Subsite GTT = biological target: Finger-2 Subsite GTT
From the text: as §1, §2

| Substance | KD,Prot/KD,Zif268 (Finger-2 Subsite GAG) | Kd (Finger-2 Subsite GAG) | KD,Prot/KD,Zif268 (Finger-2 Subsite GTG) | Kd (Finger-2 Subsite GTG) | KD,Prot/KD,Zif268 (Finger-2 Subsite GTT) | Kd (Finger-2 Subsite GTT) |
| --- | --- | --- | --- | --- | --- | --- |
| pmGTG: finger 2 variant refined by mutagenesis, helix SRSDELVR | 3.0 | 30 nM | 1.5 | 15 nM |  |  |
| pmGTT: finger 2 variant refined by mutagenesis, helix STSGSLVR |  |  |  |  | 0.5 | 5 nM |

From US7442784B2, “Ligand activated transcriptional regulator proteins” (The Scripps Research Institute, priority 1999, dated 2008)
